Results from paper PMC8878324, “Evaluation of New Antimicrobial Agents Based on tris(1H-Indol-3-yl)methylium Salts: Activity, Toxicity, Suppression of Experimental Sepsis in Mice” (Pharmaceuticals, 2022).
In brackets after ≈: the same amount, converted by molar mass.

How the values were obtained:
Assay in all cases: MIC by broth microdilution
Type in all cases: cell-based
Enterococcus faecium 569 = conditions: for MIC: Enterococcus faecium 569; for activity against Enterococcus faecium 569: in words, strain resistant to cefuroxime, clindamycin, gentamycin, vancomycin and doxycycline
Protocol: (§1) We have tested the antimicrobial activity in vitro of over 100 tris(indolyl)methane derivatives against 16 strains of Gram-positive, Gram-negative bacteria and fungi including either sensitive or drug-resistant strains from ATCC, as well as resistant clinical isolates from the culture collection of the Laboratory for Control of Hospital Infections (Sechenov University, Moscow, Russia). The minimum inhibitory concentrations (MICs) were determined by the microdilution method in a cation-adjusted Müller–Hinton medium for bacteria and in a liquid culture medium RPMI 1640 with L-glutamine without sodium bicarbonate for fungi in accordance with the requirements of the Institute of Clinical and Laboratory Standards (CLSI/NCCLS). […] As a rule, their activity against Gram-negative bacteria was usually not that high. […] For comparison, the antimicrobial activity of prototype 4 is shown. The antibacterial antibiotic levofloxacin and the antifungal amphotericin B were used as reference drugs (Table 1).
(§2) The synthesis of compounds and the scheme of their preparation and purification, as well as physicochemical characteristics, were described earlier. To evaluate the biological activity in vitro, the compounds were dissolved in DMSO at a concentration of 2.0–6.4 mg/mL, followed by preparation of two-fold dilutions in the same solvent, if necessary. The solutions were further diluted in an aqueous medium for the final concentration of DMSO not to exceed 1%, and the concentration of the compounds ranged from 64.0 to 0.13 μg/mL. To study compounds in vivo, solutions for intravenous administration in 5% glucose solution were prepared. Solutions were sterilized by filtration through 0.22 µm filters (Millipore, Burlington, MA, USA).
(§3) Strains of Gram-positive, Gram-negative bacteria and fungi including sensitive or drug-resistant strains from ATCC, as well as resistant clinical isolates from the culture collection of the Laboratory for Control of Hospital Infections (Sechenov University, Moscow, Russia), were used. Clinical isolates of Gram-positive bacteria Staphylococcus aureus 5 (MRSA), Staphylococcus aureus 10, Staphylococcus aureus 100KC (MRSA), Staphylococcus epidermidis 533, Staphylococcus haemoliticus 585 and Enterococcus faecium 569, as well as collection cultures of Gram-positive bacteria Staphylococcus aureus ATCC 700699, Staphylococcus aureus ATCC 25923, Staphylococcus aureus ATCC 3798 and collection cultures of Gram-negative bacteria Escherichia coli ATCC 25922, Klebsiella pneumoniae ATCC 13883, Proteus vulgaris ATCC 13315, Salmonella cholerasuis ATCC 14028, Pseudomonas aeruginosa ATCC 27853 and collection cultures of the yeast Candida albicans ATCC 14053 and the fungi Aspergillus niger ATCC 16404 were used. To grow the microorganisms, we used Trypticase Soy Agar (TSA, Sigma-Aldrich Co., Burlington, MA, USA). Trypticase Soy Agar, BBL, was used for cultivation of Staphylococcus spp. and E. coli. For cultivation of Enterococcus spp. and P. aeruginosa we used a ready-made dry medium Columbia Agar Base, BBL. The media were sterilized by autoclaving at 121 °C for 15 min. Yeast culture C. albicans was grown on Sabouraud agar (peptone—10 g, glucose—40 g, agar—20 g, distilled water—1 L, pH 6.0), and filamentous fungi A. niger was grown on potato–glucose agar (potatoes—200 g, glucose—20 g, agar—15 g, distilled water—1 L, pH 5.5–6.0).
(§4) To determine the antibacterial effect, a liquid Müller–Hinton medium (Becton, Dickinson and Company, Cockeysville, MD, USA) was used; to determine the effect of compounds on fungi we used RPMI 1640 medium with L-glutamine, without sodium bicarbonate, which was prepared from a dry medium (ICN Biomedicals Inc., Costa Mesa, CA, USA) by dilution in distilled water, subsequent buffering with 0.165 M of morpholinepropanesulfonic acid (MOPS, Acros Organics B.V.B.A., Morris Plains, NJ, USA) and adjusting the pH of the medium to 7.0 by adding 1 N of NaOH solution. […]

[1] = tested on: Escherichia coli ATCC 25922; conditions: ATCC25922
Protocol: as §1, §2, §3, §4

[2] = tested on: Klebsiella pneumoniae ATCC 13883; conditions: ATCC13883
Protocol: as §1, §2, §3, §4

[3] = tested on: Proteus vulgaris ATCC 13315; conditions: ATCC13315
Protocol: as §1, §2, §3, §4

[4] = tested on: Pseudomonas aeruginosa ATCC 27853; conditions: ATCC27853
Protocol: as §1, §2, §3, §4

[5] = tested on: Salmonella cholerasuis ATCC 14028; conditions: ATCC14028
Protocol: as §1, §2, §3, §4

[6] = tested on: Staphylococcus aureus 100KC; conditions: Staphylococcus aureus 100KC (MRSA)
Protocol: as §1, §2, §3, §4

Staphylococcus aureus 5 = Staphylococcus aureus 5 (MRSA)
Protocol: as §1, §2, §3, §4

[7] = tested on: Staphylococcus aureus ATCC 25923; conditions: ATCC25923
Protocol: as §1, §2, §3, §4

[8] = tested on: Staphylococcus aureus ATCC 3798; conditions: ATCC3798
Protocol: as §1, §2, §3, §4

[9] = tested on: Staphylococcus aureus ATCC 700699; conditions: ATCC700699
Protocol: as §1, §2, §3, §4

[10] = tested on: Staphylococcus epidermidis 533
Protocol: as §1, §2, §3, §4

[11] = tested on: Staphylococcus haemoliticus 585; conditions: for MIC: Staphylococcus haemoliticus 585
Protocol: as §1, §2, §3, §4

SMILES: OCCCCCn1cc([C+](c2cn(CCCCCO)c3ccccc23)c2cn(CCCCCO)c3ccccc23)c2ccccc21.[Cl-] [Compound 1, tris(1-(5-Hydroxypentyl)-1H-indol-3-yl) methylium chloride]
- MIC (Enterococcus faecium 569): 8 µg/mL
- activity against Enterococcus faecium 569 (Enterococcus faecium 569): reduced activity
- MIC [1]: 8 µg/mL
- MIC [2]: 2 µg/mL
- MIC [3]: 64 µg/mL
- MIC [4]: > 64 µg/mL
- MIC [5]: > 64 µg/mL
- MIC [6]: 2 µg/mL
- MIC (Staphylococcus aureus 5): 4 µg/mL
- MIC [7]: 2 µg/mL
- MIC [8]: 2 µg/mL
- MIC [9]: 2 µg/mL
- MIC [10]: 1 µg/mL
- MIC [11]: 4 µg/mL

SMILES: CCCn1cc([C+](c2cn(CCC)c3ccccc23)c2cn(C3=C(N)C(=O)NC3=O)c3ccccc23)c2ccccc21.[Cl-] [Compound 2, (1-(4-Amino-2,5-dioxo-2,5-dihydro-1H-pyrrol-3-yl)-1H-indol-3-yl)bis(1-propyl-1H-indol-3-yl) methylium chloride]
- MIC (Enterococcus faecium 569): 8 µg/mL
- MIC [1]: > 64 µg/mL
- MIC [2]: > 64 µg/mL
- MIC [3]: 16 µg/mL
- MIC [4]: 32 µg/mL
- MIC [5]: > 64 µg/mL
- MIC [6]: 0.5 µg/mL
- MIC (Staphylococcus aureus 5): 0.25 µg/mL
- MIC [7]: 0.5 µg/mL
- MIC [8]: 0.25 µg/mL
- MIC [9]: 0.5 µg/mL
- MIC [10]: 0.5 µg/mL
- MIC [11]: 2 µg/mL

SMILES: CCCn1cc([C+](c2cn(CCC)c3ccccc23)c2cn(C3=C(N(C)C)C(=O)NC3=O)c3ccccc23)c2ccccc21 [Compound 3, 1-(4-Dimethylamino-2,5-dioxo-2,5-dihydro-1H-pyrrol-3-yl) -1H-indol-3-yl) bis(1-propyl-1H-indol-3-yl) methylium chloride]
- MIC (Enterococcus faecium 569): > 64 µg/mL
- activity against Enterococcus faecium 569 (Enterococcus faecium 569): inactive
- MIC [1]: 16 µg/mL
- MIC [2]: > 64 µg/mL
- MIC [3]: > 64 µg/mL
- MIC [4]: 16 µg/mL
- MIC [5]: > 64 µg/mL
- MIC [6]: 0.13 µg/mL
- MIC (Staphylococcus aureus 5): 0.5 µg/mL
- MIC [7]: 0.13 µg/mL
- MIC [8]: 0.13 µg/mL
- MIC [9]: 0.13 µg/mL
- MIC [10]: 0.5 µg/mL
- MIC [11]: > 64 µg/mL
- activity against Staphylococcus haemoliticus 585 ([11]; in words, clinical isolate resistant to penicillins, aminoglycosides and erythromycin): not active

SMILES: C[C@H]1COc2c(N3CCN(C)CC3)c(F)cc3c(=O)c(C(=O)O)cn1c23 [Levofloxacin, levofloxacin, reference compound]
- MIC (Enterococcus faecium 569): 1 µg/mL (≈ 2.77 µM)
- MIC [1]: 0.06 µg/mL (≈ 0.166 µM)
- MIC [2]: 0.25 µg/mL (≈ 0.692 µM)
- MIC [3]: 4 µg/mL (≈ 11.1 µM)
- MIC [4]: 1 µg/mL (≈ 2.77 µM)
- MIC [5]: 0.13 µg/mL (≈ 0.36 µM)
- MIC [6]: 32 µg/mL (≈ 88.6 µM)
- MIC (Staphylococcus aureus 5): 0.25 µg/mL (≈ 0.692 µM)
- MIC [7]: 0.25 µg/mL (≈ 0.692 µM)
- MIC [8]: 32 µg/mL (≈ 88.6 µM)
- MIC [9]: 16 µg/mL (≈ 44.3 µM)
- MIC [10]: 0.5 µg/mL (≈ 1.38 µM)
- MIC [11]: 0.5 µg/mL (≈ 1.38 µM)
